Assay results as given in patent US20230406831A1, “COMPOUNDS AND METHODS OF INHIBITING BACTERIAL CHAPERONIN SYSTEMS” (THE TRUSTEES OF INDIANA UNIVERSITY, priority 2020, published 2023).
Where two headings read alike, the source gives them in different places.

What was measured:
[1] = HEK 293 kidney cell viability / cytotoxicity assay (Alamar Blue); type: cell-based; details: human
Procedure: Evaluating compound effects on kidney cell viability.
HEK 293 cells were maintained in MEM medium (Corning Cellgro, 10-009 CV) supplemented with 10% FBS (Sigma, F2242). […] Cells at 80% confluence were harvested and diluted in growth medium, then 45 μL of the HEK 293 cells (1,500 cells/well) were dispensed per well, and plates were sealed with “Breathe Easy” oxygen permeable membranes (Diversified Biotech) and incubated at 37° C., 5% CO2, for 24 h. […] Plates were sealed with “Breathe Easy” oxygen permeable membranes and incubated for an additional 48 h at 37° C. and 5% CO2. The Alamar Blue reporter reagents were then added to a final concentration of 10%, the plates incubated at 37° C. and 5% CO2, and sample fluorescence (535 nm excitation, 590 nm emission) was read using a Molecular Devices FlexStation II 384-well plate reader (readings taken between 4-24 h of incubation so as to achieve signals in the 30-60% range for conversion of resazurin to resorufin). Cell viability was calculated as per vendor instructions (Thermo Fisher—Alamar Blue cell viability assay manual).

[2] = biological target: T1, native MDH (Sus scrofa, UniProt P00346); test: Native MDH enzymatic activity counter-screen; type: biochemical, pig
T1 construct: soluble pig heart MDH from Roche, product #10127248001; purchased Roche 10127248001; host or cells: pig heart
T1 sequence (P00346 25-338): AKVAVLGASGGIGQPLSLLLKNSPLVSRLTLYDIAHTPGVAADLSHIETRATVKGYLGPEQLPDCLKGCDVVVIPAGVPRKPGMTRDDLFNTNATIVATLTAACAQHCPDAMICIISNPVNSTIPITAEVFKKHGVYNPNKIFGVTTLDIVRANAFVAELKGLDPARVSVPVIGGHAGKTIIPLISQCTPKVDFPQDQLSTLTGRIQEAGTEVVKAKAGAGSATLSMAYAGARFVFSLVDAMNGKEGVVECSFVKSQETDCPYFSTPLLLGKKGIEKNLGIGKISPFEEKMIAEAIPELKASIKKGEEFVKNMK
Procedure: Counter-screening compounds for inhibition of native MDH enzymatic activity.
Reagent Preparations & Assay Protocol: This assay was performed as described above for the GroEL/ES-dMDH refolding assay; however, the assay protocol differed in the sequence of compound addition to the assay plates. The refolding reactions were allowed to proceed for 45 min at 37° C. in the absence of test compounds (complete refolding of MDH occurs), then quenched with the EDTA stock. Compounds were then pin-transferred into the plates after the EDTA quenching step; thus, compounds effects are only possible by inhibiting the fully-refolded MDH reporter substrate. Next enzymatic activity of the refolded MDH was initiated by addition of 20 μL MDH enzymatic assay stock (20 mM sodium mesoxalate and 2.4 mM NADH in reaction buffer, 50 mM Tris pH 7.4, 50 mM KCl, 1 mM DTT), and followed by measuring the NADH absorbance in each well at 340 nm using a Molecular Devices SpectraMax Plus384 microplate reader
A340 nm measurements were recorded at 0.5 minutes (start point) and at successive time points until the amount of NADH consumed reached ˜90% (end point, generally between 20-35 minutes). Compounds were tested in 8-point, 3-fold dilution series (62.5 μM to 29 nM during the reporter reaction) in clear, flat-bottom 384-well microtiter plates.
DMSO was used as a negative control, and previously discovered native MDH inhibitors were used as positive controls. IC50 values for the test compounds were obtained by plotting the % inhibition results in GraphPad Prism 6 and analyzing by non-linear regression using the log (inhibitor) vs. response (variable slope) equation. Results presented represent the averages of IC50 values obtained from at least quadriplicate (duplicate of duplicate) replicates.

[3] = HEK 293 kidney cells, Table 3, 48 h incubation, Alamar Blue, read-out: HEK 293 Kidney Cell Viability CC50
[4] = Table 3, compounds added after refolding and EDTA quench, read-out: Biochemical Assay IC50 Native MDH Activity
[5] = Table 2, 48 h incubation, Alamar Blue, read-out: HEK 293 Kidney Cell Viability CC50
[6] = Table 2, compounds added after refolding and EDTA quench, read-out: Biochemical Assay IC50 Native MDH Activity
[7] = Table 1, compounds added after refolding and EDTA quench, read-out: Biochemical Assay IC50 Native MDH Activity
[8] = HEK 293 kidney cells, Table 2, 48 h incubation, Alamar Blue, read-out: HEK 293 Kidney Cell Viability CC50
[9] = Table 3, 48 h incubation, Alamar Blue, read-out: HEK 293 Kidney Cell Viability CC50
[10] = HEK 293 kidney cells, Table 1, 48 h incubation, Alamar Blue, read-out: HEK 293 Kidney Cell Viability CC50

| Structure (SMILES) | CC50 at 48 h [1, 3] [µM] | IC50 [2, 4] [µM] | IC50 [2, 6] [µM] | also measured |
| --- | --- | --- | --- | --- |
| O=C(Nc1ccc(Oc2ccc(Cl)cc2)c(Cl)c1)c1cc(I)cc(I)c1O [Rafoxanide, reference compound] |  |  |  | CC50 at 48 h ([1]; Table 1, 48 h incubation, Alamar Blue, read-out: HEK 293 Kidney Cell Viability CC50): 82 µM; IC50 [2]: 17 µM |
| COc1ccc(Cl)cc1C(=O)Nc1ccc(Oc2ccc(Cl)cc2)cc1 [Compound 88, 5-chloro-N-(4-(4-chlorophenoxy)phenyl)-2-methoxybenzamide] | > 100 | > 63 |  |  |
| COc1ccc(Cl)cc1C(=O)Nc1ccc(Oc2ccc(Cl)cc2)c(Cl)c1 [Compound 86, 5-chloro-N-(3-chloro-4-(4-chlorophenoxy)phenyl)-2-methoxybenzamide] | > 100 | > 63 |  |  |
| COc1ccc(Cl)cc1C(=O)Nc1cc(Cl)c(C(C#N)c2ccc(Cl)cc2)cc1C (centres unmarked) [Compound 57, 5-chloro-N-(5-chloro-4-((4-chlorophenyl)(cyano)methyl)-2-methylphenyl)-2-methoxybenzamide] |  | > 63 | > 63 | CC50 at 48 h [1, 5]: 28 µM |
| N#CC(c1ccccc1)c1ccc(NC(=O)c2cc(Cl)ccc2O)cc1 (centres unmarked) [Compound 85, 5-chloro-N-(4-(cyano(phenyl)methyl)phenyl)-2-hydroxybenzamide] | 29 | > 63 |  |  |
| Cc1cc(C(C#N)c2ccc(Cl)cc2)c(Cl)cc1NC(=O)c1cc(I)cc(I)c1O (centres unmarked) [Closantel, reference compound] |  |  |  | CC50 at 48 h [1]: 79 µM; IC50 [2, 7]: 6 µM |
| Cc1cc(C(C#N)c2ccc(Cl)cc2)c(Cl)cc1NC(=O)c1ccccc1N (centres unmarked) [Compound 70, 2-amino-N-(5-chloro-4-((4-chlorophenyl)(cyano)methyl)-2-methylphenyl)benzamide] |  |  | > 63 | CC50 at 48 h [1, 8]: 32 µM |
| Cc1cc(C(C#N)c2ccc(Cl)cc2)c(Cl)cc1NC(=O)c1cccc(Br)c1 (centres unmarked) [Compound 74, 3-bromo-N-(5-chloro-4-((4-chlorophenyl)(cyano)methyl)-2-methylphenyl)benzamide] |  |  | > 63 | CC50 at 48 h [1, 8]: > 100 µM |
| COc1ccc(Cl)cc1C(=O)Nc1ccc(C(=O)O)cc1 [Compound 108, 4-(5-chloro-2-methoxybenzamido)benzoic acid] | > 100 | > 63 |  |  |
| Cc1cc(C(C#N)c2ccc(Cl)cc2)c(Cl)cc1NC(=O)c1ccc(Cl)cc1O (centres unmarked) [Compound 56, 4-chloro-N-(5-chloro-4-((4-chlorophenyl)(cyano)methyl)-2-methylphenyl)-2-hydroxybenzamide] |  |  | 59 | CC50 at 48 h [1, 5]: 16 µM |
| Cc1cc(C(C#N)c2ccc(Cl)cc2)c(Cl)cc1NC(=O)c1cc(Br)ccc1O (centres unmarked) [Compound 50, 5-bromo-N-(5-chloro-4-((4-chlorophenyl)(cyano)methyl)-2-methylphenyl)-2-hydroxybenzamide] |  |  | 55 | CC50 at 48 h [1, 5]: 3.4 µM |
| COc1ccc(Cl)cc1C(=O)Nc1ccc(O)cc1 [Compound 114, 5-chloro-N-(4-hydroxyphenyl)-2-methoxybenzamide] | > 100 | > 63 |  |  |
| Cc1cc(C(C#N)c2ccc(Cl)cc2)c(Cl)cc1NC(=O)c1cccc(F)c1 (centres unmarked) [Compound 80, N-(5-chloro-4-((4-chlorophenyl)(cyano)methyl)-2-methylphenyl)-3-fluorobenzamide] |  |  | > 63 | CC50 at 48 h [1, 8]: 70 µM |
| COC(=O)c1ccc(NC(=O)c2cc(Cl)ccc2OC)cc1 [Compound 106, methyl 4-(5-chloro-2-methoxybenzamido)benzoate] | 24 | > 63 |  |  |
| N#CCc1ccc(NC(=O)c2cc(Cl)ccc2O)cc1 [Compound 111, 5-chloro-N-(4-(cyanomethyl)phenyl)-2-hydroxybenzamide] | 19 | > 63 |  |  |
| COc1ccc(C)cc1C(=O)Nc1cc(Cl)c(C(C#N)c2ccc(Cl)cc2)cc1C (centres unmarked) [Compound 59, N-(5-chloro-4-((4-chlorophenyl)(cyano)methyl)-2-methylphenyl)-2-methoxy-5-methylbenzamide] |  |  | > 63 | CC50 at 48 h [1, 5]: 32 µM |
| COc1cc(Cl)ccc1C(=O)Nc1cc(Cl)c(C(C#N)c2ccc(Cl)cc2)cc1C (centres unmarked) [Compound 55, 4-chloro-N-(5-chloro-4-((4-chlorophenyl)(cyano)methyl)-2-methylphenyl)-2-methoxybenzamide] |  |  | > 63 | CC50 at 48 h [1, 5]: > 100 µM |
| O=C(Nc1ccc(Oc2ccc(Cl)cc2)c(Cl)c1)c1cc(Cl)ccc1O [Compound 87, 5-chloro-N-(3-chloro-4-(4-chlorophenoxy)phenyl)-2-hydroxybenzamide] |  | > 63 |  | CC50 at 48 h [1, 9]: 10 µM |
| O=C(Nc1ccc(CCc2ccccc2)cc1)c1cc(Cl)ccc1O [Compound 101] | 4.3 | > 63 |  |  |
| Cc1cc(C(C#N)c2ccc(Cl)cc2)c(Cl)cc1NC(=O)c1ccc(N)cc1 (centres unmarked) [Compound 72, 4-amino-N-(5-chloro-4-((4-chlorophenyl)(cyano)methyl)-2-methylphenyl)benzamide] |  |  | > 63 | CC50 at 48 h [1, 8]: 53 µM |
| Cc1cc(C(C#N)c2ccc(Cl)cc2)c(Cl)cc1NC(=O)c1ccccc1O (centres unmarked) [Compound 64, N-(5-chloro-4-((4-chlorophenyl)(cyano)methyl)-2-methylphenyl)-2-hydroxybenzamide] |  |  | > 63 | CC50 at 48 h [1, 5]: 26 µM |
| O=C(Nc1ccc(Oc2ccc(Cl)cc2)cc1)c1cc(Cl)ccc1O [Compound 89, 5-chloro-N-(4-(4-chlorophenoxy)phenyl)-2-hydroxybenzamide] |  | > 63 |  | CC50 at 48 h [1, 9]: 15 µM |
| CC(=O)Oc1ccccc1C(=O)Nc1ncc([N+](=O)[O-])s1 [Nitazoxanide, reference compound] |  |  |  | CC50 at 48 h [1, 10]: 30 µM; IC50 [2, 7]: > 63 µM |
| O=C(Nc1ccc([N+](=O)[O-])cc1Cl)c1cc(Cl)ccc1O [Niclosamide, reference compound] |  | > 63 |  | CC50 at 48 h [1, 10]: 1.7 µM; IC50 [2, 7]: > 63 µM |
| COc1ccccc1C(=O)Nc1cc(Cl)c(C(C#N)c2ccc(Cl)cc2)cc1C (centres unmarked) [Compound 61, N-(5-chloro-4-((4-chlorophenyl)(cyano)methyl)-2-methylphenyl)-2-methoxybenzamide] |  |  | > 63 | CC50 at 48 h [1, 8]: > 100 µM |
| COc1ccc(Cl)cc1C(=O)Nc1ccc(Sc2nc3ccccc3s2)c(Cl)c1 [Compound 94, N-(4-(benzo[d]thiazol-2-ylthio)-3-chlorophenyl)-5-chloro-2-methoxybenzamide] | > 100 | > 63 |  |  |
| COc1ccc(NC(=O)c2cc(Cl)ccc2OC)cc1 [Compound 112, 5-chloro-2-methoxy-N-(4-methoxyphenyl)benzamide] | > 100 | > 63 |  |  |
| COc1c(Br)cccc1C(=O)Nc1cc(Cl)c(C(C#N)c2ccc(Cl)cc2)cc1C (centres unmarked) [Compound 47, 3-bromo-N-(5-chloro-4-((4-chlorophenyl)(cyano)methyl)-2-methylphenyl)-2-methoxybenzamide] |  |  | > 63 | CC50 at 48 h [1, 5]: > 100 µM |
| COc1ccc(Cl)cc1C(=O)Nc1ccc(OCc2ccccc2)cc1 [Compound 102, N-(4-(benzyloxy)phenyl)-5-chloro-2-methoxybenzamide] | > 100 | > 63 |  |  |
| Cc1cc(C(C#N)c2ccc(Cl)cc2)c(Cl)cc1NC(=O)c1ccc(F)cc1 (centres unmarked) [Compound 81, N-(5-chloro-4-((4-chlorophenyl)(cyano)methyl)-2-methylphenyl)-4-fluorobenzamide] |  |  | > 63 | CC50 at 48 h [1, 5]: 78 µM |
